In ChEMBL document CHEMBL1201862, “PubChem BioAssay data set” (2004) one finds AC50, IC50 and CC50 data, which are given here for 14 compounds.

In experiment [1] the target is T1, Long-chain-fatty-acid--AMP ligase FadD28 (Mycobacterium tuberculosis, UniProt P9WQ59).
T1 sequence (P9WQ59 whole entry): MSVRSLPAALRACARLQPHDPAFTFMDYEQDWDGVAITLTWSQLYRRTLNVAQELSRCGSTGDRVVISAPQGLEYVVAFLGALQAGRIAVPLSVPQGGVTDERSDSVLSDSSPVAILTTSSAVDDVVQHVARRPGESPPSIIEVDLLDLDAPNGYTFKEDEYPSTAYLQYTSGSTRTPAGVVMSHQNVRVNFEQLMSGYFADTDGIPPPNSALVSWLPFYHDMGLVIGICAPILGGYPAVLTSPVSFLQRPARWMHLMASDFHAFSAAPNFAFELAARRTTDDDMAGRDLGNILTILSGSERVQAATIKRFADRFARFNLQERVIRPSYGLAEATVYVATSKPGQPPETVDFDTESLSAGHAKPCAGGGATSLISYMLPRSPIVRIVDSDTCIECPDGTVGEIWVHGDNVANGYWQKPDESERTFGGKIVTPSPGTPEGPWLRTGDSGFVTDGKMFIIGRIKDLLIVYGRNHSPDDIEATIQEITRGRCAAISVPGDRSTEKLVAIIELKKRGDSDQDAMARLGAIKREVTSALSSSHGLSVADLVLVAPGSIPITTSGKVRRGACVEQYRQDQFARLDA
The experiment is described as follows: Fluorescence polarization aasay to screen for inhibitors that compete for the binding of FadD28 to a bisubstrate Measured in Biochemical System Using Plate Reader - 2147-01_Inhibitor_Dose_CherryPick_Activity. It is filed as functional, Mycobacterium tuberculosis H37Rv. A general note: Fluorescence polarisation rises when a labelled molecule tumbles more slowly, as on binding a larger partner.

In experiment [2] the target is T2, Sentrin-specific protease 1 (Homo sapiens, UniProt Q9P0U3).
T2 sequence (Q9P0U3 whole entry): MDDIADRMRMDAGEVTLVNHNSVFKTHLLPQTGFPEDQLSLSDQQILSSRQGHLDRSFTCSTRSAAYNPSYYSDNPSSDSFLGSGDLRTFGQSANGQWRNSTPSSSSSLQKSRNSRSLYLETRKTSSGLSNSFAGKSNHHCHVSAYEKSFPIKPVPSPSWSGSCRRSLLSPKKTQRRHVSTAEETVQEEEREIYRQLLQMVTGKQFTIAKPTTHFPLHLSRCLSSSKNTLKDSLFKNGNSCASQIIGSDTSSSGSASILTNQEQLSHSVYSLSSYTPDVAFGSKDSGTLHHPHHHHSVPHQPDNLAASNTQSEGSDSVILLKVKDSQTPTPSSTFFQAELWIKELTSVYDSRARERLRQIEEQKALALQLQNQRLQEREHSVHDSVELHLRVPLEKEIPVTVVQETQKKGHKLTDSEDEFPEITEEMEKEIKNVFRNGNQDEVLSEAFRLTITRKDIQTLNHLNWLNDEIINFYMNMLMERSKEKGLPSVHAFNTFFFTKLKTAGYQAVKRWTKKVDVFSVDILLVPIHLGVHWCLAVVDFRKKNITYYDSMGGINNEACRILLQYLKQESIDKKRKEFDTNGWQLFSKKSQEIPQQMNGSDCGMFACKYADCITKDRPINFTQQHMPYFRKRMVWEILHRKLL
The experiment can be described thus: SENP1 catalytic domain blockers, concentration series – biochemical, kinetic FRET, dose response (AID 651697). The note with it: read-out: IC50_Mean. It is filed as functional.

The target in experiment [3] is T2, Sentrin-specific protease 1. The experiment is described as follows: Dose response confirmation of small molecule inhibitors of the catalytic domain of the SUMO protease, SENP1 in a FRET assay. It is filed as functional. The following applies: read-out: IC50_Mean.
In the next experiment the target is T3, Leucine aminopeptidase (Plasmodium falciparum 3D7, UniProt Q8IL11).
T3 sequence (Q8IL11 whole entry): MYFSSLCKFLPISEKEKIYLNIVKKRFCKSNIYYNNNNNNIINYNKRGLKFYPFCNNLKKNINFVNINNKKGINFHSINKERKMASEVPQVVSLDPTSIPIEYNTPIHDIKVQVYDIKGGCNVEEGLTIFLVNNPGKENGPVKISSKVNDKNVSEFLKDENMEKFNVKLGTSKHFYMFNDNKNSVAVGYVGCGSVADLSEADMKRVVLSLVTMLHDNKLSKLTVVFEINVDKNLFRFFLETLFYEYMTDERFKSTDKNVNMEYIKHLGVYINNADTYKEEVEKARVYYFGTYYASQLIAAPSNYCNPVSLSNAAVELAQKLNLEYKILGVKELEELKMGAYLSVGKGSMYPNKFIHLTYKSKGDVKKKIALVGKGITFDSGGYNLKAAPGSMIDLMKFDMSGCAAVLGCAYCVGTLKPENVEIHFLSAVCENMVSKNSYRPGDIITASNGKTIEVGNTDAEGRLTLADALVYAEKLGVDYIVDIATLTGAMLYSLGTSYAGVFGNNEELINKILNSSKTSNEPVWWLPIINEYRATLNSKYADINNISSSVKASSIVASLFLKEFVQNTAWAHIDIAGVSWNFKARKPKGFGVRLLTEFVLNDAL
The experiment is described as follows: P. falciparum M17LAP inhibitors, primary screen, biochemical, fluorogenic H-Leu-NHMec substrate, 1536-well (AID 1619). It counts as functional.

Experiment [4] addresses T4, Carboxy-terminal domain RNA polymerase II polypeptide A small phosphatase 1 (Homo sapiens, UniProt Q9GZU7).
T4 sequence (Q9GZU7 whole entry): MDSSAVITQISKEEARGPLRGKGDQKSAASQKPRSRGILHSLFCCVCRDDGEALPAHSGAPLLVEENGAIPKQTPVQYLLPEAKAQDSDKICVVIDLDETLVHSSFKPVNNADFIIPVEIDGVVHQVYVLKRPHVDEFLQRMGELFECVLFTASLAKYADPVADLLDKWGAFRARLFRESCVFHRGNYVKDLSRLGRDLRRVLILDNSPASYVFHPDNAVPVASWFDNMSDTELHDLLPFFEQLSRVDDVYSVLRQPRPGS
The experiment can be described thus: CTDSP1 inhibitors, concentration-response, biochemical, absorbance readout, ultra-high-throughput screen actives (AID 540297). It counts as functional.

Experiment [5] in a line: OVCAR8 cell viability loss – plate reader, dry powder samples, PAX8 project, dose response (AID 743197). It counts as functional, cell-based. The note with it: OVCAR-8.
In a further experiment the target is Paired box protein Pax-8 (Homo sapiens, UniProt Q06710). The experiment is described as follows: PAX8 transcriptional activity inhibition in RMG-I – RMG-I cells, luciferase, cherry-pick, dose response (AID 687027).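 Also: luciferase reporter driven by Pax8 target thyroperoxidase promoter measured by SteadyGlo luminescence.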 It counts as functional, cell-based.
Paired box protein Pax-8, sequence (Q06710 whole entry): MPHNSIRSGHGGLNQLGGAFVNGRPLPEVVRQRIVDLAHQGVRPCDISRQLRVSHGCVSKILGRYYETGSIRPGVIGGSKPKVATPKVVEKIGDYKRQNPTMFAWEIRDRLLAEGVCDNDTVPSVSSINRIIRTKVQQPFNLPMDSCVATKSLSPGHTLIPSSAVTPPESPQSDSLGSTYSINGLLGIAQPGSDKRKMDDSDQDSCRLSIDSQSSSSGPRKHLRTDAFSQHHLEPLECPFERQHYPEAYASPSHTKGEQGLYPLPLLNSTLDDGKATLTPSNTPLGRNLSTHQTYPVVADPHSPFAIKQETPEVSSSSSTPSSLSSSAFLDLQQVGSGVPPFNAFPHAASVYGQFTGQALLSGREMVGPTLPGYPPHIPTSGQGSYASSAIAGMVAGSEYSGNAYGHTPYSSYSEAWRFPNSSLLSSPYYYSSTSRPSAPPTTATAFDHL
The nature of experiment [6]: OVCAR-3 cell viability loss – plate reader, dry powder samples, PAX8 inhibitor project, dose response (AID 743044). It counts as functional, cell-based.
A short description of experiment [7]: IGROV1 cell killing – plate reader, dry powder samples, PAX8 inhibitor project, dose response (AID 743043). The note with it: IGROV-1. It is filed as functional, cell-based.
The nature of experiment [8]: Luminescence Cell-Based Dose Retest to Confirm Inhibitors of Cancer Stem Cells. [Related pubchem assays (depositor defined):AID2717, AID2721]. It is filed as functional. The following applies: Homo sapiens.
Experiment [9] in a line: viability of uninfected HEp-2 cells – cell-based, HTS, cytotoxicity control for RSV inhibitor project, dose response (AID 2410). It is filed as functional. The following applies: human respiratory syncytial virus.
Experiment [10] addresses T5, Polyadenylate-binding protein 1 (Homo sapiens, UniProt P11940). The experiment can be described thus: MLLE domain peptide-binding blockers, IC50 – biochemical, fluorescence polarization, FITC-PAM2 peptide, dose response (AID 602259). It is filed as functional. The following applies: read-out: IC50_Mean.
The target of experiment [11] is T5, Polyadenylate-binding protein 1. The experiment is described as follows: MLLE binding blockers, Cy5 peptide tracer – biochemical, fluorescence polarization, Cy5-PAM2 peptide, secondary, miRNA deadenylation inhibitor project, dose response (AID 602260). It counts as functional. The note with it: read-out: IC50_Mean.

Structures can show the parent of a compound that is named as a salt. Calls of active or inactive are those of the source.

T5 sequence (P11940 whole entry, the tested form may be a part): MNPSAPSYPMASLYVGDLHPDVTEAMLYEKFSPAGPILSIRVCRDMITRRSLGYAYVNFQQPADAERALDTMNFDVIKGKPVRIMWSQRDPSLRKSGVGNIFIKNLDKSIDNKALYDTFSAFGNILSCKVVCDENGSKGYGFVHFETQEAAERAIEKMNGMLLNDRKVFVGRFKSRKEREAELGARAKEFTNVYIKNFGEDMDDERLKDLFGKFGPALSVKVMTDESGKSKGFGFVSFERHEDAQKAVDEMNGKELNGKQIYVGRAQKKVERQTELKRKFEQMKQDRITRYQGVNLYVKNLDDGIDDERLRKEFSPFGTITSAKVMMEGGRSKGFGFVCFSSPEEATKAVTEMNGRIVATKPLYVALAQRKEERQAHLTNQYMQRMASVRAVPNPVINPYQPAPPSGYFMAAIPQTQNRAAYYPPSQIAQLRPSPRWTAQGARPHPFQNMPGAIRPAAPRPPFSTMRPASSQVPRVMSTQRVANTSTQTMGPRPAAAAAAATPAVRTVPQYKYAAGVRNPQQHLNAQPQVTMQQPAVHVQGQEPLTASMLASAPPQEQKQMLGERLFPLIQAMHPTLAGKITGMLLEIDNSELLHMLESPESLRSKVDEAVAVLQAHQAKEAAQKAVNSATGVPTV

The term AC50 denotes the concentration giving half of the maximal activity seen. Turning to `O=C(COc1ncnc2c1cnn2-c1ccccc1)Nc1ccc(S(=O)(=O)N2CCCCC2)cc1`, the AC50 in experiment [1] is > 100 µM (inactive).
The same measure, in the same setting: next, `CCc1ccccc1NC(=O)CN(C)C(=O)CSc1nnc(Nc2cccc(C)c2C)s1`: 4.79 µM (active); `COc1ccc(/C=C2\CCCc3c2nc2ccc(C)cc2c3C(=O)O)cc1O`: 79.3 µM (active).
With `COc1cc(O)c(C=Nc2ccccc2NS(=O)(=O)c2ccc(C)cc2)c(OC)c1`, the values for the IC50 in [2] and in experiment [3] were 16.1 µM (active) and 15.2 µM (active), respectively.
Regarding `O=C(O)c1ccc(/C=N/NC(=O)c2cc(-c3ccc4c5c(cccc35)CC4)[nH]n2)cc1`, the IC50 on Leucine aminopeptidase was 26.8 µM (active); in experiment [4], 4.31 µM (active).
On to `CCOc1cc(/C=C2\S/C(=N\c3ccccc3)N(c3ccccc3)C2=O)ccc1OCC(=O)O`, for which the IC50 on Leucine aminopeptidase is 31.3 µM (active).
As for `C[C@@H]1CCCCO[C@@H](CN(C)Cc2ccc(Cl)c(Cl)c2)[C@H](C)CN([C@H](C)CO)C(=O)c2cc(NC(=O)Nc3ccc(F)cc3)ccc2O1`, the AC50 in experiment [5] is > 70 µM (inactive); at Paired box protein Pax-8, 5.06 µM (active).
`O=C(Nc1cccc(F)c1)N1CCCCN2[C@@H](CO)[C@@H](c3ccc(-c4ccccc4F)cc3)[C@@H]2C1`: the AC50 on Paired box protein Pax-8 is 21.1 µM (active); in [6], 37.6 µM (active); in experiment [7] it was 26.9 µM (active).
Turning to `C[C@@H]1CN([C@H](C)CO)S(=O)(=O)c2ccc(C#Cc3cccc(F)c3)cc2O[C@@H]1CN(C)C(=O)NC1CCCCC1`, the AC50 in experiment [5] was 33.6 µM (active); on Paired box protein Pax-8, 8.38 µM (active); in experiment [6] it was 42.1 µM (active).
Take `C[C@H]1CN([C@@H](C)CO)C(=O)c2c(c3ccccc3n2C)-c2ccccc2CO[C@@H]1CN(C)Cc1cccc(C(F)(F)F)c1`: the half-maximal activity concentration (AC50) was 43.7 µM (active) in [5], 9.89 µM (active) on Paired box protein Pax-8 and 53 µM (active) in [7].
For the compound `COc1ccc(C2C(C(C)=O)=C(C)N=c3s/c(=C\c4ccco4)c(=O)n32)c(OC)c1` (stereo not given), the IC50 is 24.9 µM (inactive) in experiment [2] and 20.2 µM (inactive) in experiment [3].
With `C/C(CCC1CC(C)OC1=O)=N/Nc1nc(-c2ccccc2)cs1` (stereo not given), the IC50 on Leucine aminopeptidase was 30.8 µM (active).
For orientation: CC50 means the concentration at which the toxic effect on the cells reaches its halfway point. For the compound `CN(C)c1ccc(/C=N/NC(=O)/C(O)=C\C2=NC3(CCCC3)Cc3ccccc32)cc1`, the values for the IC50 in experiment [2] and in [3] were 10.1 µM (active) and 13.2 µM (active), respectively. Further, in experiment [8], the half-maximal activity concentration (AC50) was 3.54 µM (active). Further, the CC50 in experiment [9] is 25.8 µM (active).
With `CN1Cc2c(N)cccc2C(c2ccccc2)C1` (stereo not given) [NOMIFENSINE MALEATE], the IC50 was 8.36 µM (active) in experiment [2], > 66 µM (inactive) in experiment [10], > 66 µM (inactive) in [11] and 8.71 µM (active) in experiment [3].
